Reference: PubChem BioAssay AID330 (DTP/NCI, 2004)
Where “and” joins values, the source holds several entries; their conditions need not be identical. Equal values may be shown once. Toxic doses and inconclusive results are not listed.

Tested on: P388 leukemia ip, CD2F1 mice, survival T/C
Assay: NCI In Vivo Anticancer Drug Screen. Data for tumor model P388 Leukemia (intraperitoneal) in CD2F1 (CDF1) mice
Conditions: endpoint: median survival time, higher = longer survival
Method in brief: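 Mice carrying the transplanted tumor received test compound or vehicle. Survival was recorded in each group, and the value is the treated-group measurement divided by that of the vehicle-treated control group.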

## CO[C@H](C(=O)[C@@H](O)[C@@H](C)O)[C@@H]1Cc2cc3cc(OC4CC(OC5CC(O)C(O)C(C)O5)C(O)C(C)O4)c(C)c(O)c3c(O)c2C(=O)[C@H]1OC1CC(OC2CC(OC3CC(C)(O)C(O)C(C)O3)C(O)C(C)O2)C(O)C(C)O1 (stereo partly drawn)
dose: 0.01 mg/kg/injection, schedule: Q01DX009 (ip), vehicle: saline
  T/C: 100 % of control
dose: 0.02 mg/kg/injection, schedule: Q01DX009 (sc), vehicle: saline
  T/C: 100 % of control
dose: 0.03 mg/kg/injection, schedule: Q01DX001 (ip), vehicle: saline
  T/C: 100 % of control
dose: 0.03 mg/kg/injection, schedule: Q01DX001 (sc), vehicle: saline
  T/C: 104 % of control
dose: 0.03 mg/kg/injection, schedule: Q01DX005 (iv), vehicle: saline
  T/C: 100 % of control
dose: 0.03 mg/kg/injection, schedule: Q01DX009 (ip), vehicle: saline
  T/C: 100 % of control
dose: 0.03 mg/kg/injection, schedule: Q01DX009 (sc), vehicle: saline
  T/C: 104 % of control
dose: 0.05 mg/kg/injection, schedule: Q01DX009 (ip), vehicle: water
  T/C: 109 % of control and 110 % of control
dose: 0.05 mg/kg/injection, schedule: Q01DX010 (ip), vehicle: water
  T/C: 100 % of control
dose: 0.06 mg/kg/injection, schedule: Q01DX001 (ip), vehicle: saline
  T/C: 100 % of control
dose: 0.06 mg/kg/injection, schedule: Q01DX001 (sc), vehicle: saline
  T/C: 104 % of control
dose: 0.06 mg/kg/injection, schedule: Q01DX005 (iv), vehicle: saline
  T/C: 100 % of control
dose: 0.06 mg/kg/injection, schedule: Q01DX009 (ip), vehicle: saline
  T/C: 100 % of control
dose: 0.06 mg/kg/injection, schedule: Q01DX009 (sc), vehicle: saline
  T/C: 100 % of control
dose: 0.1 mg/kg/injection, schedule: Q01DX009 (ip), vehicle: water
  T/C: 115 % of control
dose: 0.1 mg/kg/injection, schedule: Q01DX015 (ip), vehicle: water
  T/C: 100 % of control and 109 % of control
dose: 0.12 mg/kg/injection, schedule: Q01DX009 (ip), vehicle: clinical formulation
  T/C: 103 % of control and 104 % of control and 108 % of control
dose: 0.12 mg/kg/injection, schedule: Q01DX009 (ip), vehicle: water
  T/C: 111 % of control and 114 % of control
dose: 0.13 mg/kg/injection, schedule: Q01DX001 (ip), vehicle: saline
  T/C: 100 % of control
dose: 0.13 mg/kg/injection, schedule: Q01DX001 (sc), vehicle: saline
  T/C: 100 % of control
dose: 0.13 mg/kg/injection, schedule: Q01DX005 (ip), vehicle: water
  T/C: 106 % of control and 107 % of control
dose: 0.13 mg/kg/injection, schedule: Q01DX005 (iv), vehicle: saline
  T/C: 100 % of control
dose: 0.13 mg/kg/injection, schedule: Q01DX009 (ip), vehicle: water
  T/C: 100 % of control
dose: 0.13 mg/kg/injection, schedule: Q01DX009 (sc), vehicle: saline
  T/C: 100 % of control
dose: 0.16 mg/kg/injection, schedule: Q01DX009 (ip), vehicle: saline
  T/C: 99 % of control
dose: 0.2 mg/kg/injection, schedule: Q01DX009 (ip), vehicle: water
  T/C: 118 % of control and 120 % of control
dose: 0.2 mg/kg/injection, schedule: Q01DX015 (ip), vehicle: water
  T/C: 109 % of control
dose: 0.22 mg/kg/injection, schedule: Q01DX005 (ip), vehicle: clinical formulation
  T/C: 108 % of control
dose: 0.25 mg/kg/injection, schedule: Q01DX001 (ip), vehicle: saline
  T/C: 100 % of control (2×) and 118 % of control
dose: 0.25 mg/kg/injection, schedule: Q01DX001 (sc), vehicle: saline
  T/C: 100 % of control
dose: 0.25 mg/kg/injection, schedule: Q01DX005 (ip), vehicle: water
  T/C: 108 % of control and 116 % of control
dose: 0.25 mg/kg/injection, schedule: Q01DX005 (iv), vehicle: saline
  T/C: 100 % of control
dose: 0.25 mg/kg/injection, schedule: Q01DX009 (ip), vehicle: clinical formulation
  T/C: 105 % of control and 109 % of control
dose: 0.25 mg/kg/injection, schedule: Q01DX009 (oral), vehicle: saline
  T/C: 109 % of control
dose: 0.25 mg/kg/injection, schedule: Q01DX009 (sc), vehicle: saline
  T/C: 100 % of control
dose: 0.25 mg/kg/injection, schedule: Q03HX008 (ip), vehicle: saline
  T/C: 108 % of control
dose: 0.25 mg/kg/injection, schedule: Q04DX024 (ip), vehicle: saline
  T/C: 116 % of control
dose: 0.25 mg/kg/injection, schedule: Q08DX002 (ip), vehicle: saline
  T/C: 118 % of control
dose: 0.27 mg/kg/injection, schedule: Q01DX009 (ip), vehicle: saline
  T/C: 99 % of control
dose: 0.3 mg/kg/injection, schedule: Q01DX015 (ip), vehicle: water
  T/C: 104 % of control and 118 % of control
dose: 0.36 mg/kg/injection, schedule: Q01DX005 (ip), vehicle: clinical formulation
  T/C: 105 % of control
dose: 0.4 mg/kg/injection, schedule: Q01DX015 (ip), vehicle: water
  T/C: 109 % of control
dose: 0.45 mg/kg/injection, schedule: Q01DX009 (ip), vehicle: saline
  T/C: 102 % of control
dose: 0.5 mg/kg/injection, schedule: Q01DX001 (ip), vehicle: saline
  T/C: 100 % of control (2×) and 113 % of control
dose: 0.5 mg/kg/injection, schedule: Q01DX001 (oral), vehicle: saline
  T/C: 100 % of control
dose: 0.5 mg/kg/injection, schedule: Q01DX001 (sc), vehicle: saline
  T/C: 100 % of control
dose: 0.5 mg/kg/injection, schedule: Q01DX005 (ip), vehicle: water
  T/C: 111 % of control and 114 % of control
dose: 0.5 mg/kg/injection, schedule: Q01DX005 (iv), vehicle: saline
  T/C: 100 % of control
dose: 0.5 mg/kg/injection, schedule: Q01DX009 (ip), vehicle: clinical formulation
  T/C: 116 % of control
dose: 0.5 mg/kg/injection, schedule: Q01DX009 (ip), vehicle: saline
  T/C: 113 % of control
dose: 0.5 mg/kg/injection, schedule: Q01DX009 (ip), vehicle: water
  T/C: 150 % of control
dose: 0.5 mg/kg/injection, schedule: Q01DX009 (oral), vehicle: saline
  T/C: 109 % of control
dose: 0.5 mg/kg/injection, schedule: Q01DX009 (sc), vehicle: saline
  T/C: 100 % of control
dose: 0.5 mg/kg/injection, schedule: Q01DX015 (ip), vehicle: water
  T/C: 118 % of control
dose: 0.5 mg/kg/injection, schedule: Q03HX008 (ip), vehicle: saline
  T/C: 108 % of control
dose: 0.6 mg/kg/injection, schedule: Q01DX005 (ip), vehicle: clinical formulation
  T/C: 113 % of control
dose: 0.65 mg/kg/injection, schedule: Q01DX009 (ip), vehicle: water
  T/C: 150 % of control
dose: 0.75 mg/kg/injection, schedule: Q01DX009 (ip), vehicle: saline
  T/C: 104 % of control
dose: 1.0 mg/kg/injection, schedule: Q01DX001 (ip), vehicle: saline
  T/C: 118 % of control
dose: 1.0 mg/kg/injection, schedule: Q01DX001 (oral), vehicle: saline
  T/C: 104 % of control
dose: 1.0 mg/kg/injection, schedule: Q01DX001 (sc), vehicle: saline
  T/C: 104 % of control
dose: 1.0 mg/kg/injection, schedule: Q01DX005 (ip), vehicle: water
  T/C: 118 % of control
dose: 1.0 mg/kg/injection, schedule: Q01DX009 (ip), vehicle: clinical formulation
  T/C: 104 % of control
dose: 1.0 mg/kg/injection, schedule: Q01DX009 (oral), vehicle: saline
  T/C: 109 % of control
dose: 1.0 mg/kg/injection, schedule: Q03HX008 (ip), vehicle: saline
  T/C: 116 % of control
dose: 1.0 mg/kg/injection, schedule: Q08DX002 (ip), vehicle: saline
  T/C: 109 % of control
dose: 2.0 mg/kg/injection, schedule: Q01DX001 (oral), vehicle: saline
  T/C: 100 % of control
dose: 2.0 mg/kg/injection, schedule: Q01DX009 (ip), vehicle: clinical formulation
  T/C: 116 % of control
dose: 2.0 mg/kg/injection, schedule: Q01DX009 (oral), vehicle: saline
  T/C: 109 % of control
dose: 4.0 mg/kg/injection, schedule: Q01DX001 (oral), vehicle: saline
  T/C: 100 % of control

## Cn1nnn(C)c1=NC#N
dose: 100.0 mg/kg/injection, schedule: Q01DX001 (ip), vehicle: saline
  T/C: 100 % of control
dose: 200.0 mg/kg/injection, schedule: Q01DX001 (ip), vehicle: saline
  T/C: 107 % of control
dose: 400.0 mg/kg/injection, schedule: Q01DX001 (ip), vehicle: saline
  T/C: 100 % of control
